The values below come from patent US7947661B2, “Compounds for the treatment of marihuana dependence, withdrawal, and usage” (priority 2004, dated 2011).

The conditions of data set [1]: cited from earlier work.
The conditions of data set [2]: cited from earlier work. This is another data set of the same source.
The conditions of data set [3]: cited from earlier work. This is another data set of the same source.
Another data set deals with cocaine dependent person. The data set can be described thus: Wrist accelerometer (ActiWatch) sleep wake activity and marihuana cigarettes in a representative subject. In kind it is in vivo, human. Conditions: 500 mg twice daily citicoline, days 10-14 vs baseline. As to the method:
FIG. 2 is a graph of activity of a representative cocaine dependent person two weeks prior to (Baseline) and two weeks after (Citicoline) treatment with citicoline. […] Marihuana cigarettes are depicted by the arrows. Each strip recording is a 24 hour period of consecutive days. Activity was determined by use of an accelerometer worn on the subject'[…] Score). Data in FIG. 2 also show a decrease in the number of marihuana cigarettes smoked and a more normalized, diurnal sleep pattern after treatment with citicoline. Subjects were given either placebo or 500 mg, twice daily of citicoline. […] The subject's binge use of marihuana (arrows on second day) is clearly defined. The bottom 4 tracings of FIG. 2 show the same subject on days 10-14 of citicoline treatment. […] This pattern continued throughout the 8 weeks of treatment for this subject.

Data set [4] has as its system cocaine-dependent subjects. In words: Weekly marihuana use from daily diaries, citicoline vs placebo for 8 weeks. In kind it is in vivo, human. Conditions: citicoline treatment weeks 3-10, not dependent on cannabis. As to the method:
FIG. 1 is a graph of a time course of weekly marihuana use in citicoline- and placebo-treated cocaine-dependent subjects. Subjects were treated with either citicoline or placebo for 8 weeks and then asked to keep track of their drug use patterns via a daily diary. Follow up weeks were conducted under a no drug condition.
Compared to placebo treatment, marihuana use was reduced during citicoline treatment (weeks 3-10) as reported using the daily diaries. […] There is a group difference at baseline; this difference occurred because subjects were not matched for marihuana use in this study, and these subjects were not dependent on cannabis.

On to `C[N+](C)(C)CCOP(=O)(O)OP(=O)([O-])OC[C@H]1O[C@@H](n2ccc(N)nc2=O)[C@H](O)[C@@H]1O` [CDP-choline, cytidine 5′-diphosphocholine], for which, in data set [1], the tolerability in mammals entry was “well tolerated”. In addition, the “conversion into circulating metabolites” value in data set [2] (administered either orally or intravenously) is “rapidly converted into the two major circulating metabolites, choline and cytidine”. Moreover, in data set [2] (orally administered), the “CDP-choline and/or its metabolites absorbed” value is “more than 99%” and the excreted in feces result is on record as “less than 1%”. In addition, in data set [2] (share of dose), the excretion via lung is 12.9%; the excretion via urine was 2.4%; the “rest of the dose metabolized and retained in tissues” value was 83.9%. In addition, the reported overdoses entry in data set [3] (in vivo) was “no reported cases of overdoses”. The “toxicity symptoms on ingestion of large amounts” value in data set [3] (preclinical studies) is “common cholinergic symptoms (salivation, lacrimation, urination, defecation, and vomiting)”. Further, the “number of marihuana cigarettes smoked” value with cocaine dependent person is given as “decrease”. In addition, in the data set with cocaine dependent person (continued throughout 8 weeks), the “sleep wake profile (accelerometer activity)” value was “more normalized diurnal pattern of sleeping at night and became more active during the day”. For the same compound, the “marihuana use (cigarettes per week, daily diaries) compared to placebo” value in data set [4] is listed as “reduced”.
Regarding `CN(CC(=O)O)C(=N)N` [Creatine, creatine], the tolerability in humans entry in data set [1] is “well tolerated at relatively high doses”.
In the case of `CC(=O)OC[C@H]1O[C@@H](n2ccc(=O)[nH]c2=O)[C@H](OC(C)=O)[C@@H]1OC(C)=O` [triacetyl uridine], the tolerability in mammals entry in data set [1] was “well tolerated”.
For `O=c1ccn([C@@H]2O[C@H](CO)[C@@H](O)[C@H]2O)c(=O)[nH]1` [uridine], in data set [1], the tolerability in humans result is on record as “well tolerated” and the tolerability in mammals entry was “well tolerated”.
